Measured values from patent US20030006516A1, “Optical data storage medium containing a heterocyclic azo dye as the light-absorbing compound in the information layer” (priority 2001, published 2003).

Columns and labels:
Type in all cases: physicochemical
[1] = Solubility in TFP (2,2,3,3-tetrafluoropropanol)
From the text: Solubility: >2% in TFP (2,2,3,3-tetrafluoropropanol)

[2] = Absorption spectrum measured in solution (λmax, ε, slope width, solvatochromism)
Protocol: For a recordable optical data storage medium according to the invention which is recorded on and read using light from a blue laser, such heterocyclic azo dyes are preferred whose absorption maximum λmax2 is in the range from 420 to 550 nm, […] half the extinction value at λmax2, and the wavelength λ1/10, at which the extinction on the short-wavelength slope of the absorption maximum of the wavelength λmax2 is a tenth of the extinction value at λmax2, are preferably in each case no further than 80 nm away from each other.
For a recordable optical data storage medium according to the invention which is recorded on and read using light from a red laser, such heterocyclic azo dyes are preferred whose absorption maximum λmax2 is in the range from 500 to 650 nm, wherein the wavelength λ1/2 at which the extinction on the long-wavelength slope of the absorption maximum of the wavelength λmax2 is half the extinction value at λmax2, and the wavelength λ1/10, at which the extinction on the long-wavelength slope of the absorption maximum of the wavelength λmax2 is a tenth of the extinction value at λmax2, are preferably in each case no further than 60 nm away from each other.
At the absorption maximum λmax2 the heterocyclic azo dyes preferably have a molar extinction coefficient E of >25000 l/mol cm, preferably >35000 l/mol cm, particularly preferably >40000 l/mol cm and very particularly preferably >50000 l/mol cm.
The absorption spectra are, for example, measured in solution.
Suitable heterocyclic azo dyes having the required spectral properties are in particular those in which the change in the dipole moment Δμ=|μg−μag|, i.e. the positive difference between the dipole moments in the ground state and the first excited state is as small as possible, i.e. preferably <5 D, and particularly preferably <2 D. One method of determining such a change in the dipole moment Δμ is described for example in F. Würthner et al., Angew. Chem. 1997, 109, 2933 and in the literature cited therein. Low solvatochromism (dioxan/DMF) is also a suitable criterion for selection. Preferred heterocyclic azo dyes are those whose solvatochromism Δλ=|λDMFλdioxan|, i.e. the positive difference between the absorption wavelengths in the solvents dimethyl formamide and dioxan is <20 nm, particularly preferably <10 nm, and very particularly preferably <5 nm.

[3] = Film formation (morphology of the dye layer)
From the text: In addition to the abovementioned optical properties, the recordable information layer consisting of light-absorbing organic substances must have a morphology which is as amorphous as possible, in order to keep the noise signal during recording or reading as small as possible. For this purpose it is particularly preferable, when applying the substances by spin-coating from a solution or by vapour deposition and/or sublimation, to prevent crystallization of the light-absorbing substances during the subsequent top-coating with metallic or dielectric layers in vacuo.

Solubility [1]: > 2% | λ1/2-λ1/10 (long-wave slope) ([2]; Example 1, long-wave slope): 22 nm | ε ([2]; Example 1, molar extinction coefficient at λmax): 44140 L/mol/cm | λmax ([2]; Example 1, solvent not given): 496 nm | Δλ=|λDMF−λdioxan| ([2]; solvatochromism DMF vs dioxan): 2 nm | film [3]: a glassy film
Compound: CC(C)N(c1nnc(/N=N/c2cnc(N(C)C)s2)s1)C(C)C [Example 1]
